From US20230278972A1, “SUBSTITUTED HALOALKYL SULFONANILIDE HERBICIDES” (FMC Corporation, priority 2020, published 2023)

Columns and labels:
Format in all cases: in vivo
kochia (Bassia scoparia) [1] = test: Test A postemergence, kochia; settings: Postemergence, 0 to 100 scale (0 no effect, 100 complete control)
In short: (§1)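 Pots: loam soil/sand blend. Pre: directed soil spray at planting. Post: plants 2–10 cm, 1–2 leaf stage. Formulation: non-phytotoxic solvent + surfactant.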

[2] = system: ragweed (common ragweed, Ambrosia artemisiifolia); test: Test A preemergence, ragweed; settings: Preemergence; for Plant response rating, Ragweed: 0 to 100 scale (0 no effect, 100 complete control)
In short: as §1

[3] = system: Ryegrass, Italian (Italian ryegrass, Lolium multiflorum); test: Test A preemergence, Ryegrass, Italian; settings: Preemergence; for Plant response rating, Ryegrass, Italian: 0 to 100 scale (0 no effect, 100 complete control)
In short: as §1

[4] = system: barnyardgrass (Echinochloa crus-galli); test: Test A preemergence, barnyardgrass; settings: Preemergence; for Plant response rating, Barnyardgrass: 0 to 100 scale (0 no effect, 100 complete control)
In short: as §1

[5] = system: wheat (Triticum aestivum); test: Test A postemergence, wheat; settings: Postemergence, 0 to 100 scale (0 no effect, 100 complete control)
In short: (§2)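 Formulated with a surfactant in a non-phytotoxic solvent, compounds are applied to loam–sand pots, either to bare soil immediately after seeding (preemergence) or to seedlings of 2 to 10 cm bearing one to two leaves (postemergence).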

[6] = system: ragweed (common ragweed, Ambrosia artemisiifolia); test: Test A postemergence, ragweed; settings: Postemergence, 0 to 100 scale (0 no effect, 100 complete control)
In short: as §1

[7] = system: Foxtail, Giant (giant foxtail, Setaria faberi); test: Test A preemergence, Foxtail, Giant; settings: Preemergence; for Plant response rating, Foxtail, Giant: 0 to 100 scale (0 no effect, 100 complete control)
In short: as §1

[8] = system: blackgrass (Alopecurus myosuroides); test: Test A postemergence, blackgrass; settings: Postemergence, 0 to 100 scale (0 no effect, 100 complete control)
In short: as §1

[9] = system: Foxtail, Giant (giant foxtail, Setaria faberi); test: Test A postemergence, Foxtail, Giant; settings: Postemergence, 0 to 100 scale (0 no effect, 100 complete control)
In short: as §1

corn (Zea mays) = test: Test A postemergence, corn; settings: Postemergence, 0 to 100 scale (0 no effect, 100 complete control)
In short: as §1

[10] = system: pigweed (Amaranthus retroflexus); test: Test A postemergence, pigweed; settings: Postemergence, 0 to 100 scale (0 no effect, 100 complete control)
In short: as §1

[11] = system: barnyardgrass (Echinochloa crus-galli); test: Test A postemergence, barnyardgrass; settings: Postemergence, 0 to 100 scale (0 no effect, 100 complete control)
In short: as §2

[12] = system: pigweed (Amaranthus retroflexus); test: Test A preemergence, pigweed; settings: for Plant response rating, Pigweed: 0 to 100 scale (0 no effect, 100 complete control)
In short: as §2

[13] = system: Ryegrass, Italian (Italian ryegrass, Lolium multiflorum); test: Test A postemergence, Ryegrass, Italian; settings: Postemergence, 0 to 100 scale (0 no effect, 100 complete control)
In short: as §1

[14] = system: galium (catchweed bedstraw, Galium aparine); test: Test A postemergence, galium; settings: Postemergence, 0 to 100 scale (0 no effect, 100 complete control)
In short: as §2

kochia (Bassia scoparia) [15] = test: Test A preemergence, kochia; settings: Preemergence; for Plant response rating, Kochia: 0 to 100 scale (0 no effect, 100 complete control)
In short: as §1

[16] = 1000 g ai/ha, visual injury, approx. 10 days
[17] = 125 g ai/ha, visual injury approx. 10 days
[18] = 500 g ai/ha, visual injury, approx. 10 days
[19] = 125 g ai/ha, visual injury on 0 to 100 scale (0 no effect, 100 complete control), approximately 10 days

SMILES: Cc1cc(C)c(C(=O)N2CCC(F)CC2)cc1NS(=O)(=O)C(F)(F)F [Compound 8]
- Plant response rating, Kochia (kochia (Bassia scoparia) [1]; [16]): 80
- Plant response rating, Ragweed ([2]; 1000 g ai/ha): 90
- Plant response rating, Ryegrass, Italian ([3]; 1000 g ai/ha): 100
- Plant response rating, Barnyardgrass ([4]; 1000 g ai/ha): 100
- Plant response rating, Wheat [5, 16]: 40
- Plant response rating, Ragweed [6, 16]: 90
- Plant response rating, Foxtail, Giant ([7]; 1000 g ai/ha): 100
- Plant response rating, Blackgrass [8, 16]: 70
- Plant response rating, Foxtail, Giant [9, 16]: 90
- Plant response rating, Corn (corn (Zea mays); [16]): 30
- Plant response rating, Pigweed [10, 16]: 80
- Plant response rating, Barnyardgrass [11, 16]: 80
- Plant response rating, Pigweed ([12]; 1000 g ai/ha): 100
- Plant response rating, Ryegrass, Italian [13, 16]: 80
- Plant response rating, Galium [14, 16]: 20
- Plant response rating, Kochia (kochia (Bassia scoparia) [15]; 1000 g ai/ha): 100

SMILES: Cc1cc(C)c(C(=O)N2CC(C)OC(C)C2)cc1NS(=O)(=O)C(F)(F)F (centres unmarked) [Compound 9]
- Plant response rating, Kochia (kochia (Bassia scoparia) [1]; [17]): 10
- Plant response rating, Kochia (kochia (Bassia scoparia) [1]; [18]): 30
- Ragweed plant response rating [2, 19]: 90
- Plant response rating, Ragweed ([2]; 500 g ai/ha): 90
- Ryegrass, Italian plant response rating [3, 19]: 90
- Plant response rating, Ryegrass, Italian ([3]; 500 g ai/ha): 100
- Barnyardgrass plant response rating [4, 19]: 100
- Plant response rating, Barnyardgrass ([4]; 500 g ai/ha): 100
- Plant response rating, Wheat [5, 17]: 60
- Plant response rating, Wheat [5, 18]: 70
- Plant response rating, Ragweed [6, 17]: 70
- Plant response rating, Ragweed [6, 18]: 80
- Foxtail, Giant plant response rating [7, 19]: 80
- Plant response rating, Foxtail, Giant ([7]; 500 g ai/ha): 100
- Plant response rating, Blackgrass [8, 17]: 30
- Plant response rating, Blackgrass [8, 18]: 30
- Plant response rating, Foxtail, Giant [9, 17]: 20
- Plant response rating, Foxtail, Giant [9, 18]: 90
- Plant response rating, Corn (corn (Zea mays); [17]): 0
- Plant response rating, Corn (corn (Zea mays); [18]): 70
- Plant response rating, Pigweed [10, 17]: 60
- Plant response rating, Pigweed [10, 18]: 80
- Plant response rating, Barnyardgrass [11, 17]: 80
- Plant response rating, Barnyardgrass [11, 18]: 90
- Pigweed plant response rating [12, 19]: 30
- Plant response rating, Pigweed ([12]; 500 g ai/ha): 80
- Plant response rating, Ryegrass, Italian [13, 17]: 70
- Plant response rating, Ryegrass, Italian [13, 18]: 80
- Plant response rating, Galium [14, 17]: 80
- Plant response rating, Galium [14, 18]: 90
- Kochia plant response rating (kochia (Bassia scoparia) [15]; [19]): 70
- Plant response rating, Kochia (kochia (Bassia scoparia) [15]; 500 g ai/ha): 90

SMILES: Cc1cc(C)c(C(=O)N2CCN(C)CC2)cc1NS(=O)(=O)C(F)(F)F [Compound 10]
- Plant response rating, Kochia (kochia (Bassia scoparia) [1]; [16]): 40
- Plant response rating, Ragweed ([2]; 1000 g ai/ha): 90
- Plant response rating, Ryegrass, Italian ([3]; 1000 g ai/ha): 90
- Plant response rating, Barnyardgrass ([4]; 1000 g ai/ha): 40
- Plant response rating, Wheat [5, 16]: 0
- Plant response rating, Ragweed [6, 16]: 80
- Plant response rating, Foxtail, Giant ([7]; 1000 g ai/ha): 80
- Plant response rating, Blackgrass [8, 16]: 0
- Plant response rating, Foxtail, Giant [9, 16]: 20
- Plant response rating, Corn (corn (Zea mays); [16]): 10
- Plant response rating, Pigweed [10, 16]: 80
- Plant response rating, Barnyardgrass [11, 16]: 10
- Plant response rating, Pigweed ([12]; 1000 g ai/ha): 100
- Plant response rating, Ryegrass, Italian [13, 16]: 60
- Plant response rating, Galium [14, 16]: 80
- Plant response rating, Kochia (kochia (Bassia scoparia) [15]; 1000 g ai/ha): 60

SMILES: Cc1cc(C)c(C(=O)N2CCC(C#N)CC2)cc1NS(=O)(=O)C(F)(F)F [Compound 11]
- Plant response rating, Kochia (kochia (Bassia scoparia) [1]; [16]): 60
- Plant response rating, Ragweed ([2]; 1000 g ai/ha): 80
- Plant response rating, Ryegrass, Italian ([3]; 1000 g ai/ha): 0
- Plant response rating, Barnyardgrass ([4]; 1000 g ai/ha): 100
- Plant response rating, Wheat [5, 16]: 80
- Plant response rating, Ragweed [6, 16]: 80
- Plant response rating, Foxtail, Giant ([7]; 1000 g ai/ha): 100
- Plant response rating, Blackgrass [8, 16]: 50
- Plant response rating, Foxtail, Giant [9, 16]: 90
- Plant response rating, Corn (corn (Zea mays); [16]): 60
- Plant response rating, Pigweed [10, 16]: 100
- Plant response rating, Barnyardgrass [11, 16]: 90
- Plant response rating, Pigweed ([12]; 1000 g ai/ha): 100
- Plant response rating, Ryegrass, Italian [13, 16]: 70
- Plant response rating, Galium [14, 16]: 90
- Plant response rating, Kochia (kochia (Bassia scoparia) [15]; 1000 g ai/ha): 90
